Measurements: patent US20230011869A1 (Hoffmann-La Roche Inc., priority 2018, published 2023)
Structures can show the parent of a compound that is named as a salt.

Tested on: Acinetobacter baumannii ATCC17961
Assay: Antimicrobial susceptibility testing: 90% growth inhibitory concentration (IC90) determination, Iso-Sensitest broth
Format: cell-based
Conditions: Acinetobacter baumannii, ATCC17961, 16 h, read-out: ATCC17961 IC90
Method in brief: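 Growth followed by optical density at 600 nm every 20 minutes for 16 h at 35±2° C, with inhibition assessed in log phase to give IC90. Compounds tested as twofold dilution series (e.g. 50 to 0.097 μM final) against 5×10^(5) CFU/ml in Iso-Sensitest medium.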

Compound	IC90 [nM]
CCc1cc(Nc2nccn3c(-c4ccc(OC(F)F)c(F)c4F)cnc23)ccc1C(=O)N1CCC(C(=O)N2C[C@@H]3C[C@H]2CN3)CC1 [Example 592, (4-((1S,4S)-2,5-diazabicyclo[2.2.1]heptane-2-carbonyl)piperidin-1-yl)(4-((3-(4-(difluoromethoxy)-2,3-difluorophenyl)imidazo[1,2-a]pyrazin-8-yl)amino)-2-ethylphenyl)methanone 2,2,2-trifluoroacetate formate]	38
CCc1cc(Nc2nccn3c(-c4ccc(OC(F)F)c(F)c4F)cnc23)ccc1C(=O)N1CCC(N)CC1 [Example 593, (4-aminopiperidin-1-yl)(4-((3-(4-(difluoromethoxy)-2,3-difluorophenyl)imidazo[1,2-a]pyrazin-8-yl)amino)-2-ethylphenyl)methanone formate]	196
